IC50 data for 39 molecules are collected here from patent US9718790B2, “Triazine derivative and pharmaceutical composition having an analgesic activity comprising the same” (SHIONOGI & CO., LTD., priority 2010, dated 2017).

SMILES strings stand for the structures.

The assay addresses human P2X3 receptor (Homo sapiens (Human), UniProt P56373). Put plainly: Evaluation of human P2X3 receptor inhibitory activity (Fluo-3 calcium fluorescence, FDSS 3000, ATP stimulation).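 Further: stimulus was 50 nM ATP with fluorescence followed for 3 min, and the response per well was peak post-ATP fluorescence divided by the reading at measurement start.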 The settings on record: C6BU-1 cells stably expressing human P2X3 receptor. In kind it is cell-based.

Chain of human P2X3 receptor (P56373 whole entry): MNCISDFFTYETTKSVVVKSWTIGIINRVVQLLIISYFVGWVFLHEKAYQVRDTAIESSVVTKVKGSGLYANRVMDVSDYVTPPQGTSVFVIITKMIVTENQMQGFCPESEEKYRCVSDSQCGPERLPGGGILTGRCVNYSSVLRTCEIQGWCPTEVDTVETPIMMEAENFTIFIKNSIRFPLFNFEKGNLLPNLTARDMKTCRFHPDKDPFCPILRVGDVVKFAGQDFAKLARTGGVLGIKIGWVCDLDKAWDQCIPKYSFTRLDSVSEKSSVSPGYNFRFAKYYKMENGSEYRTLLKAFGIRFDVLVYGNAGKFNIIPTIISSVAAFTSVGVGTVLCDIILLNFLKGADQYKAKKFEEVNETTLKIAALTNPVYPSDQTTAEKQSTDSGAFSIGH

Take `COCc1ccc(/N=c2\[nH]c(=O)n(C[C@H](C)C(=O)O)c(=O)n2Cc2ccc(Cl)cc2)cc1` [Compound I-0686]: the IC50 came to 605 nM.
Consider `CC(C)Oc1ccc(/N=c2\[nH]c(=O)n(C(C)(C)C(=O)NC(CO)CO)c(=O)n2Cc2ccc(Cl)cc2)cc1Cl` [Compound I-0687], for which the IC50 worked out at 12 nM.
On to `COc1ccc(CN2C(=O)CC[C@@H]2Cn2c(=O)[nH]/c(=N\c3ccc(OC(C)C)c(F)c3)n(Cc3ccc(Cl)cc3)c2=O)cc1` [Compound I-0688], for which the IC50 turned out to be 5 nM.
Then `CC(C)Oc1ccc(/N=c2\[nH]c(=O)n(Cc3cccn(C)c3=O)c(=O)n2Cc2ccc(Cl)cc2)cc1F` [Compound I-0689], with 5 nM; and `COC(=O)[C@@H](C)Cn1c(=O)[nH]/c(=N\c2ccc(C)c(Cl)c2)n(Cc2ccc(Cl)cc2)c1=O` [Compound I-0691], with 48 nM.
`COC(=O)[C@@H](C)Cn1c(=O)[nH]/c(=N\c2ccc3[nH]c(C)cc3c2)n(Cc2ccc(Cl)cc2)c1=O` [Compound I-0692]: the IC50 turned out to be 29 nM.
For `CC(C)Oc1ccc(/N=c2\[nH]c(=O)n(CCS(N)(=O)=O)c(=O)n2Cc2ccc(Cl)cc2)cc1F` [Compound I-0693, 1-(4-chlorobenzyl)-6-(3-fluoro-4-isopropoxyphenylimino)-3-(2-sulfamoylethyl)-1,3,5-triazinane-2,4-dion], the IC50 was determined as 13 nM.
Consider `CCOC(=O)C1(Cn2c(=O)[nH]/c(=N\c3ccc(OC(C)C)c(C)c3)n(Cc3ccc(Cl)cc3)c2=O)CC1` [Compound I-0694], for which the IC50 was found to be 13 nM.
In the case of `Cc1ccc(/N=c2\[nH]c(=O)n(C[C@H](C)C(=O)O)c(=O)n2Cc2ccc(Cl)cc2)cc1Cl` [Compound I-0696] it was 129 nM; in that of `Cc1cc2cc(/N=c3\[nH]c(=O)n(C[C@H](C)C(=O)O)c(=O)n3Cc3ccc(Cl)cc3)ccc2[nH]1` [Compound I-0697], 57 nM; in that of `Cc1cc(/N=c2\[nH]c(=O)n(CC3(C(=O)O)CC3)c(=O)n2Cc2ccc(Cl)cc2)ccc1OC(C)C` [Compound I-0698], 26 nM.
Then `COC(=O)[C@@H]1CC(n2c(=O)[nH]/c(=N\c3ccc(OC(C)C)c(C)c3)n(Cc3ccc(Cl)cc3)c2=O)CN1C(=O)OC(C)(C)C` (stereo partly drawn) [Compound I-0699], with 37 nM.
In the case of `COC(=O)c1ccc(Cn2c(=O)[nH]/c(=N\c3ccc(OC(C)C)c(C)c3)n(Cc3ccc(Cl)cc3)c2=O)o1` [Compound I-0700], the IC50 worked out at 6 nM.
In the case of `CCC(Cn1c(=O)[nH]/c(=N\c2ccc(OC(C)C)c(C)c2)n(Cc2ccc(Cl)cc2)c1=O)C(=O)OC(C)(C)C` (stereo not drawn) [Compound I-0701] it was 35 nM; in that of `COC(=O)[C@@H](C)Cn1c(=O)[nH]/c(=N\c2ccc(OC)c(Cl)c2)n(Cc2ccc(Cl)cc2)c1=O` [Compound I-0702], 107 nM; in that of `CNC(=O)C1(Cn2c(=O)[nH]/c(=N\c3ccc(OC(C)C)c(C)c3)n(Cc3ccc(Cl)cc3)c2=O)CC1` [Compound I-0703], 15 nM.
On to `Cc1cc(/N=c2\[nH]c(=O)n(CC3(C(=O)NCCO)CC3)c(=O)n2Cc2ccc(Cl)cc2)ccc1OC(C)C` [Compound I-0704], for which the IC50 came to 23 nM.
Turning to `CC(C)Oc1ccc(/N=c2\[nH]c(=O)n(C(C)(C)C(=O)NCCO)c(=O)n2Cc2ccc(Cl)cc2)cc1Cl` [Compound I-0705], the IC50 worked out at 11 nM.
In the case of `CCCOc1ccc(/N=c2\[nH]c(=O)n(C[C@H](C)C(=O)OC)c(=O)n2Cc2ccc(Cl)cc2)cc1C` [Compound I-0707] it was 21 nM; in that of `Cc1cc(/N=c2\[nH]c(=O)n([C@H]3C[C@@H](C(=O)O)N(C(=O)OC(C)(C)C)C3)c(=O)n2Cc2ccc(Cl)cc2)ccc1OC(C)C` [Compound I-0708], 966 nM; in that of `Cc1cc(/N=c2\[nH]c(=O)n(C[C@H]3COC(C)(C)O3)c(=O)n2Cc2ccc(Cl)cc2)ccc1OC(C)C` [Compound I-0709], 7 nM.
On to `Cc1cc(/N=c2\[nH]c(=O)n(Cc3ccc(C(=O)O)o3)c(=O)n2Cc2ccc(Cl)cc2)ccc1OC(C)C` [Compound I-0710], for which the IC50 came out at 19 nM.
Consider `CCCOc1ccc(/N=c2\[nH]c(=O)n(C[C@H](C)C(=O)O)c(=O)n2Cc2ccc(Cl)cc2)cc1C` [Compound I-0711], for which the 50% inhibitory concentration (IC50) is 40 nM.
For the molecule `Cc1cc(/N=c2\[nH]c(=O)n(Cc3cccn(CCOC4CCCCO4)c3=O)c(=O)n2Cc2ccc(Cl)cc2)ccc1OC(C)C` (stereo not drawn) [Compound I-0712], the IC50 stood at 25 nM.
Turning to `Cc1cc(/N=c2\[nH]c(=O)n(Cc3cccn(CCO)c3=O)c(=O)n2Cc2ccc(Cl)cc2)ccc1OC(C)C` [Compound I-0713], the IC50 was determined as 16 nM.
On to `Cc1cc(/N=c2\[nH]c(=O)n(Cc3cccnc3OCCOC3CCCCO3)c(=O)n2Cc2ccc(Cl)cc2)ccc1OC(C)C` (stereo not drawn) [Compound I-0714], for which the IC50 was determined as 30 nM.
As to `Cc1cc(/N=c2\[nH]c(=O)n(Cc3cccnc3OCCO)c(=O)n2Cc2ccc(Cl)cc2)ccc1OC(C)C` [Compound I-0715], the IC50 was found to be 13 nM.
`Cc1cc(/N=c2\[nH]c(=O)n([C@@H]3CN[C@H](C(=O)O)C3)c(=O)n2Cc2ccc(Cl)cc2)ccc1OC(C)C` [Compound I-0716]: the IC50 came out at 102 nM.
Take `CCOC(=O)[C@H](CCn1c(=O)[nH]/c(=N\c2ccc(OC(C)C)c(C)c2)n(Cc2ccc(Cl)cc2)c1=O)NC(=O)OC(C)(C)C` [Compound I-0717, (S)-1-(4-chlorobenzyl)-3-(3-t-butoxycarbonylamino-3-ethoxycarbonyl-propyl)-6-(3-mehyl-4-isopropoxyphenylimino)-1,3,5-triazinane-2,4-dion]: the IC50 worked out at 21 nM.
Take `CCOC(=O)C1CCC(n2c(=O)[nH]/c(=N\c3ccc(OC(C)C)c(C)c3)n(Cc3ccc(Cl)cc3)c2=O)CC1` (stereo not drawn) [Compound I-0718]: the IC50 was 93 nM.
Take `COC(=O)[C@@H](C)Cn1c(=O)[nH]/c(=N\c2ccc(OCCO)cc2)n(Cc2ccc(Cl)cc2)c1=O` [Compound I-0719]: the IC50 stood at 115 nM.
On to `CNC(=O)[C@@H](C)Cn1c(=O)[nH]/c(=N\c2ccc(OC(C)C)c(C)c2)n(Cc2ccc(Cl)cc2)c1=O` [Compound I-0721], for which the IC50 was 13 nM.
Take `Cc1cc(/N=c2\[nH]c(=O)n(C[C@H](O)CO)c(=O)n2Cc2ccc(Cl)cc2)ccc1OC(C)C` [Compound I-0722]: the IC50 was determined as 14 nM.
Then `Cc1cc(/N=c2\[nH]c(=O)n(C[C@H](C)C(=O)NCCO)c(=O)n2Cc2ccc(Cl)cc2)ccc1OC(C)C` [Compound I-0723], with 24 nM.
In the case of `COc1ccc(/N=c2\[nH]c(=O)n(C[C@H](C)C(=O)O)c(=O)n2Cc2ccc(Cl)cc2)cc1Cl` [Compound I-0724] it was 250 nM; in that of `Cc1cc(/N=c2\[nH]c(=O)n(Cc3ccc[nH]c3=O)c(=O)n2Cc2ccc(Cl)cc2)ccc1OC(C)C` [Compound I-0725], 14 nM; in that of `Cc1cc(/N=c2\[nH]c(=O)n(C[C@H](C)C(=O)NCC(F)(F)F)c(=O)n2Cc2ccc(Cl)cc2)ccc1OC(C)C` [Compound I-0726], 16 nM.
With `CC[C@@H](C)Oc1ccc(/N=c2\[nH]c(=O)n(C[C@H](C)C(=O)OC)c(=O)n2Cc2ccc(Cl)cc2)cc1` [Compound I-0727], the IC50 amounted to 12 nM.
For `CC[C@H](C)Oc1ccc(/N=c2\[nH]c(=O)n(C[C@H](C)C(=O)OC)c(=O)n2Cc2ccc(Cl)cc2)cc1` [Compound I-0728], the IC50 is 14 nM.

The term IC50 denotes the point on the concentration scale where inhibition reaches its midpoint.
